Measured values: patent US4914125A, “(S)-emopamil for the treatment of migraine” (priority 1988, dated 1990)

Columns and labels:
[1] = tested on: increase in blood pressure induced by serotonin; assay: inhibition of the increase in blood pressure induced by serotonin in the pithed rat on intravenous administration; type: in vivo, rat (male Sprague-Dawley); details: for ED50: iv, serotonin 0.0215 mg/kg i.v., read-out: ED 50% (dose which inhibits the increase in blood pressure due to serotonin by 50%)
Method: The pithing is carried out by a rod through the orbit. […] The criterion of an action of a substance is the relative inhibition (δ-%) of the increase in blood pressure induced by serotonin (δmm Hg). The quantitative evaluation is by analysis of the linear regression (y =a+b x) between log dose (mg/kg) and relative inhibition (δ%) of the increase in blood pressure due to serotonin.

[2] = tested on: serotonin; assay: serotonin-antagonistic action on oral administration; type: in vivo; details: (S)-emopamil vs verapamil
[3] = tested on: blood/brain barrier; details: rat, in vivo
Excerpt: (§1) The calculated BUI values indicate the cerebral uptake as a percentage of the water uptake.

[4] = tested on: blood/brain barrier; assay: brain uptake index (BUI) after injection into the common carotid artery of the anesthetized rat, single passage through the cerebral capillaries; details: [14C]-labeled test substance, [3H]-labeled water as internal standard, HEPES-buffered Ringer solution pH=7.35, anesthetized rat
Excerpt: as §1

[5] = tested on: serotonin; details: by comparison with known serotonin antagonists; cited from earlier work

Row | BUI value (cerebral uptake as a percentage of the water uptake) [4] [%] | Compound | antiserotonin action (in words) ([1]; compared with known serotonin antagonists and verapamil) | ED50 ([1]; pithed rat, i.v.) [mg/kg] | serotonin-antagonistic action relative to verapamil (times) ([1]; pithed rat, i.v., (S)-emopamil vs verapamil) | superiority to verapamil in the serotonin-antagonistic action (factor) [2] | passage of the blood/brain barrier (in words) [3] | serotonin-antagonistic action (in words) [5]
1 | 110 | CC(C)[C@@](C#N)(CCCN(C)CCc1ccccc1)c1ccccc1 [(S)-Emopamil, 2-isopropyl-5-(methyl-phenethylamino)-2-phenylvaleronitrile] | reaches the potency of known serotonin antagonists and exceeds by a multiple that of the comparison compound verapamil | 0.02 | 18 | 4.6 | passes the blood/brain barrier more rapidly and in considerably larger amounts than does verapamil | –
2 | – | COc1ccc(CCN(C)CCCC(C#N)(c2ccc(OC)c(OC)c2)C(C)C)cc1OC (centres unmarked) [Verapamil, reference compound] | – | 0.36 | – | – | – | weak by comparison with known serotonin antagonists
